Experimental data as given in US8476197B2, “Aminopropenoates as fungicides” (priority 2009, dated 2013).
Marks after values point to notes of the source that are not given here.

Conditions: pH 2.3

SMILES	Log P
COC(=O)C(C#N)=C(Nc1cccc(SC)c1)c1cccnc1Cl [Compound 339]	3.04
COC(=O)C(C#N)=C(NCc1ccc(Cl)nc1)c1cccnc1Cl [Compound 338]	2.11
CCOC(=O)C(C#N)=C(Nc1ccccc1SC)c1cccnc1Cl [Compound 341]	3.32
CCOC(=O)C(C#N)=C(NC(C)C(C)C)c1cccnc1-c1cccc(Cl)c1 (stereo not shown) [Compound 1568]	4.07

Same assay, conditions: pH 2.7

SMILES	Log P
CCOC(=O)C(C#N)=C(Nc1ccccc1OC(F)(F)F)c1cn(C)nc1C(F)F [Compound 1227]	3.42^[a]
CCOC(=O)C(C#N)=C(NC(C)C(N)=O)c1ccsc1Br (stereo not shown) [Compound 628]	1.9^[a]
CCOC(=O)C(C#N)=C(NC(C)C(F)(F)F)c1cn(C)nc1OC (racemic) [Compound 808]	2.82^[a]
CCOC(=O)C(C#N)=C(NCC(N)=O)c1cn(C)nc1C(F)F [Compound 1255]	2.1^[a]
CCOC(=O)C(C#N)=C(NC(C)(C)C#Cc1ccc(C#N)cc1)c1sc(C)nc1C(F)(F)F [Compound 1093]	4.04^[a]
CCOC(=O)C(C#N)=C(Nc1ccccc1Br)c1cc(C)oc1C [Compound 422]	3.99^[a]
CCOC(=O)C(C#N)=C(NC(C)C(C)C)c1ccnc(Cl)c1Br (stereo not shown) [Compound 1405]	3.92^[a]
CCNC(=O)C(C#N)=C(NC(C)C(C)C)c1ccnc(C)c1Cl (stereo not shown) [Compound 1249]	3.08^[a]
CNC(=O)C(C)NC(=C(C#N)C(=O)OC)c1cn(C)nc1C(F)F (stereo not shown) [Compound 601]	1.38^[a]
CCOC(=O)C(C#N)=C(NC(C)C(C)C)c1cc(Cl)ncc1Cl (stereo not shown) [Compound 977]	3.96^[a]
CCOC(=O)C(C#N)=C(Nc1ccccc1SC)c1sccc1Cl [Compound 435]	3.92^[a]
CCOC(=O)C(C#N)=C(NCc1nccs1)c1c(C)nn(C)c1Cl [Compound 86]	2.13^[a]
CCOC(=O)C(C#N)=C(NC(C(=O)OC)C(C)C)c1sc(Cl)nc1Cl (stereo not shown) [Compound 710]	3.82^[a]
CCOC(=O)C(C#N)=C(NC1CCCc2cccnc21)c1cccnc1Cl (stereo not shown) [Compound 1605]	3^[a]
CCOC(=O)C(C#N)=C(NC(C)c1ccccn1)c1cnn(C)c1C(F)F (stereo not shown) [Compound 1300]	2.41^[a]
CCOC(=O)C(C#N)=C(NC(C)c1ncc(C)s1)c1ccnc(Cl)c1Cl (racemic) [Compound 1389]	3.33^[a]
CCOC(=O)C(C#N)=C(NC(C)c1cc(Cl)ccn1)c1cccnc1Cl (stereo not shown) [Compound 1449]	3^[a]
CC(C)C(C)NC(=C(C#N)C(=O)N1CCCO1)c1cccnc1Cl (stereo not shown) [Compound 1612]	2.55^[a]
CCOC(=O)C(C#N)=C(NCCC(C)C)c1cccnc1Cl [Compound 1185]	3.44^[a]
CCOC(=O)C(C#N)=C(Nc1ccccc1C(O)(C(F)(F)F)C(F)(F)F)c1cn(C)nc1C(F)F [Compound 1427]	3.25^[a]
COC(=O)C(C#N)=C(NC(c1ccccc1)C1CC1)c1cccnc1Cl (stereo not shown) [Compound 398]	3.24^[a]

SMILES	Log P
CCOC(=O)C(C#N)=C(Nc1ccc2ncsc2c1)c1sccc1Br [Compound 469]	3.09^[a]
CCOC(=O)C(C#N)=C(NC(C)c1cscn1)c1ccncc1C(F)(F)F (mixture of isomers) [Compound 303]	2.6^[a]
CCOC(=O)C(C#N)=C(NC(C)CC(F)(F)F)c1cn(C)nc1C(F)F (stereo not shown) [Compound 1346]	2.77^[a]
CCCC(CO)NC(=C(C#N)C(=O)OCC)c1cccnc1Cl (stereo not shown) [Compound 1368]	2.45^[a]
CCOC(=O)C(C#N)=C(NC(C)C1CC1)c1cccnc1C(F)F (racemic) [Compound 899]	2.9^[a]
COC(=O)C(C#N)=C(NC(C)CCc1ccccc1)c1cccnc1Cl (stereo not shown) [Compound 424]	3.27^[a]
CCOC(=O)C(C#N)=C(NC(C)Cc1cc2ccccc2[nH]1)c1c(C)nn(C)c1Cl (stereo not shown) [Compound 113]	3.24^[a]
CCOC(=O)C(C#N)=C(NC(C)CCc1ccccc1)c1ccsc1Br (racemic) [Compound 538]	4.56^[a]
CCOC(=O)C(C#N)=C(NC(C)C(F)(F)F)c1cn(C)cc1C(F)(F)F (racemic) [Compound 812]	3.64^[a]
CCOC(=O)C(C#N)=C(NCc1nccs1)c1conc1C [Compound 76]	2.04^[a]
CC#CC1(NC(=C(C#N)C(=O)OCC)c2cccnc2Cl)CCCC1 [Compound 1275]	3.69^[a]
COC(=O)C(C#N)=C(Nc1ccccc1SC)c1sc(C)nc1C(F)(F)F [Compound 428]	3.46^[a]
COC(=O)C(C#N)=C(NCc1ccc(F)cn1)c1sc(C)nc1C(F)(F)F [Compound 202]	2.67^[a]
CCOC(=O)C(C#N)=C(NC(C)C1CC1)c1sc(C)nc1C(F)(F)F (stereo not shown) [Compound 886]	3.61^[a]
CCOC(=O)C(C#N)=C(NC(C)c1ccccn1)c1cn(C)nc1C (stereo not shown) [Compound 1204]	1.99^[a]
C=CCOC(=O)C(C#N)=C(NC(C)C(C)C)c1cccnc1Cl (stereo not shown) [Compound 955]	3.55
CCOC(=O)C(C#N)=C(NC(C)CN(C)C)c1ccsc1Br (stereo not shown) [Compound 613]	1.44^[a]
CCOC(=O)C(C#N)=C(NC(C#N)c1cccc(Cl)c1Cl)c1cccnc1Cl (racemic) [Compound 1257]	3.69^[a]
C#CC1(NC(=C(C#N)C(=O)OC)c2cccnc2Cl)CCCCC1 [Compound 1088]	2.99^[a]
CCOC(=O)C(C#N)=C(NC(C)CC)c1cnc(Cl)cc1Cl (racemic) [Compound 838]	3.64^[a]
CCC(NC(=C(C#N)C(=O)OC)c1cccnc1Cl)C1CCCCC1 (stereo not shown) [Compound 762]	4.07^[a]

SMILES	Log P
CCNC(=O)C(C#N)=C(NC(C)C(C)C)c1cn(C)nc1C(F)F (stereo not shown) [Compound 1278]	2.71^[a]
CCOC(=O)C(C#N)=C(NC(C)C(=O)NC)c1cn(C)nc1C(F)(F)F (stereo not shown) [Compound 636]	1.95^[a]
CCOC(=O)C(C#N)=C(NC(C)C(C)C)c1cc(Cl)sc1Cl (stereo not shown) [Compound 965]	4.72^[a]
COC(=O)C(C#N)=C(NC(C)C1CC1)c1sc(C)nc1C(F)(F)F (stereo not shown) [Compound 884]	3.27^[a]
CCOC(=O)C(C#N)=C(NC(C)c1ccn[nH]1)c1cccnc1Cl (stereo not shown) [Compound 1608]	2.1^[a]
CCOC(=O)C(C#N)=C(NC1CCC1)c1cccnc1Cl [Compound 1186]	2.92^[a]
CCOC(=O)C(C#N)=C(Nc1ccccc1Sc1ccc(C)cc1)c1cc(C)oc1C [Compound 419]	5.08^[a]
COC(=O)C(C#N)=C(NC(C)(C)C#Cc1ccc(C#N)cc1)c1sc(C)nc1C(F)(F)F [Compound 1092]	3.78^[a]
CCOC(=O)C(C#N)=C(NCc1ncccc1Cl)c1cccnc1Cl [Compound 1412]	2.78^[a]
COC(=O)C(C#N)=C(NC(C)Cc1ccccc1)c1cccnc1Cl (stereo not shown) [Compound 426]	2.98^[a]
CCOC(=O)C(C#N)=C(NC(C#N)C(C)C)c1cn(C)nc1C(F)F (stereo not shown) [Compound 1422]	2.76^[a]
COCCNC(=O)C(C#N)=C(NC(C)C(C)C)c1cn(C)nc1C(F)F (stereo not shown) [Compound 1005]	2.59^[a]
CCOC(=O)C(C#N)=C(NC(C(=O)OC)C(C)C)c1sccc1Br (stereo not shown) [Compound 650]	3.67^[a]
CCOC(=O)C(C#N)=C(NCC(C)N)c1cn(C)nc1C(F)F (racemic) [Compound 579]	0.84^[a]
CC(C)NC(=O)C(C#N)=C(NC(C)c1nccs1)c1sccc1Br (stereo not shown) [Compound 214]	3.11^[a]
CCOC(=O)C(C#N)=C(NC(C)c1cscn1)c1ccncc1Br (mixture of isomers) [Compound 298]	2.4^[a]
COC(=O)C(C#N)=C(NC(C)C)c1cccnc1Cl [Compound 822]	2.11^[a]
CCOC(=O)C(C#N)=C(NC(C)(C)CC)c1cn(C)nc1C(F)F [Compound 1421]	2.96^[a]
CCOC(=O)C(C#N)=C(NC(C)c1ccc(Cl)cc1)c1cc(Cl)sc1Cl (racemic) [Compound 499]	4.96^[a]
CCCC(C)NC(=C(C#N)C(=O)OCC)c1sccc1Br (stereo not shown) [Compound 867]	4.16^[a]
CCOC(=O)C(C#N)=C(NC(C)c1nccs1)c1nc(Cl)ccc1Cl (stereo not shown) [Compound 208]	3.02^[a]

Same assay, conditions: pH 7.5

SMILES	Log P
C=CCOC(=O)C(C#N)=C(NC(C)C1CC1)c1cccnc1Cl (mixture of isomers) [Compound 906]	3.08
COC(=O)C(C#N)=C(Nc1cccc(SC)c1)c1cccnc1Cl [Compound 339]	2.83
C=CCOC(=O)C(C#N)=C(NC(C)c1nccs1)c1ccc(Cl)nc1Cl (stereo not shown) [Compound 1450]	3.16
COC(=O)C(C#N)=C(NCc1ccc(Cl)nc1)c1cccnc1Cl [Compound 338]	2.1
C=CCOC(=O)C(C#N)=C(NC(C)C(C)C)c1cccnc1Cl (stereo not shown) [Compound 955]	3.49
CC(NC(=C(C#N)C(=O)OC1COC1)c1cccnc1Cl)C1CC1 (stereo not shown) [Compound 1281]	2.31
CCOC(=O)C(C#N)=C(Nc1ccccc1SC)c1cccnc1Cl [Compound 341]	3.17
CCOC(=O)C(C#N)=C(NC(C)CC(C)C)c1cccnc1Cl (racemic) [Compound 778]	3.62
CCOC(=O)C(C#N)=C(NC(C)CCl)c1cccnc1Cl (stereo not shown) [Compound 743]	2.7
CCOC(=O)C(C#N)=C(NC(C)C=NOC)c1cccnc1Cl (mixture of isomers) [Compound 1322]	2.49
CCOC(=O)C(C#N)=C(NC(C)c1ccc(Cl)cc1)c1cccnc1Cl (stereo not shown) [Compound 345]	3.63
CCOC(=O)C(C#N)=C(NC(C)C(C)C)c1cccnc1-c1cccc(Cl)c1 (stereo not shown) [Compound 1568]	4.09
